A word on the IC50: it is the concentration needed to halve the response being measured.

These results are taken from ChEMBL document CHEMBL5727982, “Inhibitors of cyclin-dependent kinase 7 (CDK7)” (2020).

For the experiment, the target named is Cyclin-dependent kinase 7/ cyclin H (Homo sapiens, UniProt P50613). The experiment in a line: In Vitro Kinase Assay: In vitro kinase assays with immunoprecipitated proteins (or recombinant CAK complexes) were performed as follows. Kinase reactions were performed in 25 μL of final volume of reaction buffer (50 mM Hepes, pH 7.5, 150 mM NaCl, 10 mM MgCl2, 5% glycerol, 25 μM ATP, and 10 μCi of [γ-32P]ATP). Each reaction contained 1 μg of RNAP II. Incubation was at 30° C. for 30-45 min. Reactions were terminated by addition of 5 μL of 5×SDS-PAGE sample buffer and incubated at 95° C. for 5 min. Reactions were analyzed by SDS-PAGE, and the dried gel was exposed to film or PhosphorImager plate. The experiment is classed as protein-complex assay.

Bounds are passed on as bounds.

Chain of Cyclin-dependent kinase 7/ cyclin H (P51946 whole entry): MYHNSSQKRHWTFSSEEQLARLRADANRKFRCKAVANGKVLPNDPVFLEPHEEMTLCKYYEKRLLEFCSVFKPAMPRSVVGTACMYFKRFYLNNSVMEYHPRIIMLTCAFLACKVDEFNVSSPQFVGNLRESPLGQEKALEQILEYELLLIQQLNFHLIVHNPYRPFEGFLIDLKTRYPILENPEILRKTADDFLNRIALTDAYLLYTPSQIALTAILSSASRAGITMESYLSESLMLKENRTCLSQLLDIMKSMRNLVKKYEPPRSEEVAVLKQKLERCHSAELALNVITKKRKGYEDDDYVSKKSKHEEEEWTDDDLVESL
Chain of Cyclin-dependent kinase 7/ cyclin H (P50613 whole entry): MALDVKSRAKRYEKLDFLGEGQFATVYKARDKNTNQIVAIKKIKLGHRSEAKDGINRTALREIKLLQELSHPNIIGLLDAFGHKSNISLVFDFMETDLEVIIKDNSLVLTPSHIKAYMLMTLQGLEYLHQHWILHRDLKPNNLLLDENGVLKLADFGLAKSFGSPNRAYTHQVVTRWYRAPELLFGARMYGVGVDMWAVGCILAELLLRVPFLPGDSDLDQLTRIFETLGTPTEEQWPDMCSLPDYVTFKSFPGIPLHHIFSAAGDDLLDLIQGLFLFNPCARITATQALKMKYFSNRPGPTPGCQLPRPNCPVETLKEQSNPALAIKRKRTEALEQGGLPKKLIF

Take `CN(C)C/C=C/C(=O)Nc1ccc(S(=O)(=O)Nc2cccc(Nc3ncc(Cl)c(-c4c[nH]c5ccccc45)n3)c2)cc1`: the IC50 was less than 100 nM.
